Test results published in paper PMC9329436, “Optimization of the 4-anilinoquin(az)oline scaffold as epidermal growth factor receptor (EGFR) inhibitors for chordoma utilizing a toxicology profiling assay platform” (Scientific Reports, 2022).
Like-named read-outs stand apart in the source and are kept apart here.

Legend:
Format in all cases: biochemical
[1] = target: 320 wild-type protein kinases (Homo sapiens, UniProt O75582); details: kinase RPS6KA5, singlicate
Excerpt: (§1) Table S4. Profiling of two compounds at two concentrations against 320 wild-type protein kinases; singlicate measurement; Residual activities (% of control).

[2] = target: 320 wild-type protein kinases (Homo sapiens, UniProt O75914); details: singlicate
Excerpt: as §1

[3] = target: 320 wild-type protein kinases (Homo sapiens, UniProt P08631); details: HCK, singlicate
Excerpt: as §1

[4] = target: 320 wild-type protein kinases (Homo sapiens, UniProt P45983); details: singlicate
Chain of 320 wild-type protein kinases (Homo sapiens, UniProt P45983) (P45983 whole entry): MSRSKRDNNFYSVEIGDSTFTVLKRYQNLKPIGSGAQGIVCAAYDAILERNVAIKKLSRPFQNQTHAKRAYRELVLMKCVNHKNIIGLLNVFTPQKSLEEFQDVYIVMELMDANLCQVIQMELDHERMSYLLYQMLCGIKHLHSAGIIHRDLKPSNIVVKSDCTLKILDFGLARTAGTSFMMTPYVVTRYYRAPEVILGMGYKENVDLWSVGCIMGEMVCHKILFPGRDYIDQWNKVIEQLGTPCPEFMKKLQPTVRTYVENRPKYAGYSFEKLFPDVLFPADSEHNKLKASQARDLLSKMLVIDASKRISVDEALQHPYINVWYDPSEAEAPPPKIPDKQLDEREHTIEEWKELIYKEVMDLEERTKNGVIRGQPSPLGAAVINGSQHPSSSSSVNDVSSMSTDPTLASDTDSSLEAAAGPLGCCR
Excerpt: as §1

[5] = target: 320 wild-type protein kinases (Homo sapiens, UniProt P45984); details: singlicate
Chain of 320 wild-type protein kinases (Homo sapiens, UniProt P45984) (P45984 whole entry): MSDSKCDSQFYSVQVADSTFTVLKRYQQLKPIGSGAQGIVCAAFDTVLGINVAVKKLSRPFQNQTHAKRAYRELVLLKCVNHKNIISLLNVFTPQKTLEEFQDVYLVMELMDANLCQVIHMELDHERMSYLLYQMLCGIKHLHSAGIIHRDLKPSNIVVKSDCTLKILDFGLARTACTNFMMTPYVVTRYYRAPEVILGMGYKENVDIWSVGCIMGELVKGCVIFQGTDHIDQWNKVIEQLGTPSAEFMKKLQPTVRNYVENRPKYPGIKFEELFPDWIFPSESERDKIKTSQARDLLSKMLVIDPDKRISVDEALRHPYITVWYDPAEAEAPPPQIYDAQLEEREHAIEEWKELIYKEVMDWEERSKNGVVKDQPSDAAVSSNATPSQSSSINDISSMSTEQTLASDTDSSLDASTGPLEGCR
Excerpt: as §1

[6] = target: T1, 320 wild-type protein kinases (Homo sapiens, UniProt P51955); details: singlicate
T1 sequence (P51955 1-445): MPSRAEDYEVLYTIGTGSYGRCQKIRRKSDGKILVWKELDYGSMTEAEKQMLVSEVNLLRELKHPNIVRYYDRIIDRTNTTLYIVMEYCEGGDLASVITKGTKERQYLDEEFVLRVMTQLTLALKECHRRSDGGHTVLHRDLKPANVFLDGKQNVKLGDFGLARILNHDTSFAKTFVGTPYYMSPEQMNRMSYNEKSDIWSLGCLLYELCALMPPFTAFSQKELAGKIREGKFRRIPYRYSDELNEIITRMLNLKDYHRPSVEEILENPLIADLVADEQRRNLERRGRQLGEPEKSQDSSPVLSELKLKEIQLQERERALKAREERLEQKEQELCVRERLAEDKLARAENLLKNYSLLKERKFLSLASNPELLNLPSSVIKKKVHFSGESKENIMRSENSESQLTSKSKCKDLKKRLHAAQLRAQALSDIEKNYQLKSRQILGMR
Excerpt: as §1

[7] = target: 320 wild-type protein kinases (Homo sapiens, UniProt P78362); details: kinase SRPK2, singlicate
Chain of 320 wild-type protein kinases (Homo sapiens, UniProt P78362) (P78362 whole entry): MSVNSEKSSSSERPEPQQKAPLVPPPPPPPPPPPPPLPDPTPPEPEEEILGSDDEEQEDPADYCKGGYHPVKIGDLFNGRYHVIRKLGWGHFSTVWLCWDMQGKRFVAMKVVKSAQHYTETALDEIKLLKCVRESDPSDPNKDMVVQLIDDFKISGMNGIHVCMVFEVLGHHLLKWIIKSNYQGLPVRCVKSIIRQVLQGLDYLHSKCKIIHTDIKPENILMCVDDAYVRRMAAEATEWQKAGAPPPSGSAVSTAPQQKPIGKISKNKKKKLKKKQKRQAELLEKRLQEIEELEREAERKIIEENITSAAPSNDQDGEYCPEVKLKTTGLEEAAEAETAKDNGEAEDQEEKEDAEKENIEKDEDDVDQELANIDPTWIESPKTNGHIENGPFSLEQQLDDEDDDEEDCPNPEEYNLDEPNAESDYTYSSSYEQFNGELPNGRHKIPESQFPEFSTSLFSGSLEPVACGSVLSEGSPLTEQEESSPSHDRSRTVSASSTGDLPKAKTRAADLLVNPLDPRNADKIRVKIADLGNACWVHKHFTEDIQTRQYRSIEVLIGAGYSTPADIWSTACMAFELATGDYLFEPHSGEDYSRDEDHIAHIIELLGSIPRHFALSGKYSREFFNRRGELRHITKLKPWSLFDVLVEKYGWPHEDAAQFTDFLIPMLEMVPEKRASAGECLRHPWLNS
Excerpt: as §1

[8] = target: 320 wild-type protein kinases (Homo sapiens, UniProt Q04759); details: PKC-theta, singlicate
Chain of 320 wild-type protein kinases (Homo sapiens, UniProt Q04759) (Q04759 whole entry): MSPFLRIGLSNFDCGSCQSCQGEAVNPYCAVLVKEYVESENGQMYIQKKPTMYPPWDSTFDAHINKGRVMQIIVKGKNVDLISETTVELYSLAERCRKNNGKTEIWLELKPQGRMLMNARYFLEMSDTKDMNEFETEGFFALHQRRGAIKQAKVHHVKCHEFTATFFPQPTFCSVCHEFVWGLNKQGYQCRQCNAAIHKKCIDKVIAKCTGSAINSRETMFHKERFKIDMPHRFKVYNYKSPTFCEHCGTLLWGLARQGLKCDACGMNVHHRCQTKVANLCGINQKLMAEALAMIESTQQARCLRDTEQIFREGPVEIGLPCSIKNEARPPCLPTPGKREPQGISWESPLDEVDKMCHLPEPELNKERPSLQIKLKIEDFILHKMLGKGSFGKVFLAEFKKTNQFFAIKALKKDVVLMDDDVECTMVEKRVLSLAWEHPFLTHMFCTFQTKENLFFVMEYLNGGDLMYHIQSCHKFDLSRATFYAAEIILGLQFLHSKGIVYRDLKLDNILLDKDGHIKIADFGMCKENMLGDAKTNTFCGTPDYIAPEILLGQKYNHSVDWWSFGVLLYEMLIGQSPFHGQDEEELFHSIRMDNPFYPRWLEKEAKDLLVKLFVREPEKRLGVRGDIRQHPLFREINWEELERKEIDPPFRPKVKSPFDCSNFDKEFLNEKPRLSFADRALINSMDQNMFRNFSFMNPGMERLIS
Excerpt: as §1

[9] = target: 320 wild-type protein kinases (Homo sapiens, UniProt Q05397); details: singlicate
Chain of 320 wild-type protein kinases (Homo sapiens, UniProt Q05397) (Q05397 whole entry): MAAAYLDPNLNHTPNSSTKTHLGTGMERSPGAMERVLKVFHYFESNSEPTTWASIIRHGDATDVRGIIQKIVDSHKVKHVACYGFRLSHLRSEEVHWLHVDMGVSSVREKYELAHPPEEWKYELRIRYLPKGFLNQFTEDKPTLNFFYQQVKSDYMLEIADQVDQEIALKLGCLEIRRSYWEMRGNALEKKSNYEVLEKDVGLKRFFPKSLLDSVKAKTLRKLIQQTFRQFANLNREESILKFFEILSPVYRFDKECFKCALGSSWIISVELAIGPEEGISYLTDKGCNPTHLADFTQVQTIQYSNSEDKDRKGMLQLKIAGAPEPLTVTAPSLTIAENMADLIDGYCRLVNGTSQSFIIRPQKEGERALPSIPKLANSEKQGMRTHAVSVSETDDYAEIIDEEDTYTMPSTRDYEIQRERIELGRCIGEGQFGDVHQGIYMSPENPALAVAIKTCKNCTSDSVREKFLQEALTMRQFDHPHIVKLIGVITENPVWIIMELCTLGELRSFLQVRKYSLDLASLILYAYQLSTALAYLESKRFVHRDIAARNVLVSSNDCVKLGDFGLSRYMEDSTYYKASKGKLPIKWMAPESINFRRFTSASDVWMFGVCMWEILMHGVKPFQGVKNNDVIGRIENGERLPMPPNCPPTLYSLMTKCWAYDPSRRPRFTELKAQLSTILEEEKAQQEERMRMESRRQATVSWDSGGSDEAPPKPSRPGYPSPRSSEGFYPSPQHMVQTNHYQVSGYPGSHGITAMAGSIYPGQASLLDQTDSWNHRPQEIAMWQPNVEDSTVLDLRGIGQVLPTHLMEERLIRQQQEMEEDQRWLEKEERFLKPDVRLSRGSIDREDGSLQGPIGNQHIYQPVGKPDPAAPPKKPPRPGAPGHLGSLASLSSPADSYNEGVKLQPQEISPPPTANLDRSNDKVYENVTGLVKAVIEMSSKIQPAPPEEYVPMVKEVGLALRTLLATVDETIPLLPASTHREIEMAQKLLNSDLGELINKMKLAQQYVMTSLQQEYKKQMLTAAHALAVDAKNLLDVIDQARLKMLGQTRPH
Excerpt: as §1

[10] = target: T2, 320 wild-type protein kinases (Homo sapiens, UniProt Q08881); details: ITK, singlicate
T2 sequence (Q08881 1-620): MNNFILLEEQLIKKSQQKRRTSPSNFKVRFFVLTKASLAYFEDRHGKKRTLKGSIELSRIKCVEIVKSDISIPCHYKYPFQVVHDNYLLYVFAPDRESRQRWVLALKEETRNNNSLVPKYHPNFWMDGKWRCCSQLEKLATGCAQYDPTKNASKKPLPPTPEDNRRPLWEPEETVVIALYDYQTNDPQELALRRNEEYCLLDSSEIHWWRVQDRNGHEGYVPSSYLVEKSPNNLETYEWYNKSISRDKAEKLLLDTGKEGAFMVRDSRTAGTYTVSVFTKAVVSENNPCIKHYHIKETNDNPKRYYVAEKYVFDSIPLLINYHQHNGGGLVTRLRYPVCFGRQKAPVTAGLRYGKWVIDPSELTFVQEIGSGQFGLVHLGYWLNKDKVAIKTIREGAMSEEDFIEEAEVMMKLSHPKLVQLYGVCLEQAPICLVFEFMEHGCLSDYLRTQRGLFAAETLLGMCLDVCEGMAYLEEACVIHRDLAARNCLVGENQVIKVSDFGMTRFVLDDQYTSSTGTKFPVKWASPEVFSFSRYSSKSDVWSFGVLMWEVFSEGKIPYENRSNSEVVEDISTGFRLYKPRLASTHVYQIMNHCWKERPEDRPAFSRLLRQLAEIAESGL
Excerpt: as §1

[11] = target: T3, 320 wild-type protein kinases (Homo sapiens, UniProt Q09013); details: DMPK, singlicate
T3 sequence (Q09013 1-629): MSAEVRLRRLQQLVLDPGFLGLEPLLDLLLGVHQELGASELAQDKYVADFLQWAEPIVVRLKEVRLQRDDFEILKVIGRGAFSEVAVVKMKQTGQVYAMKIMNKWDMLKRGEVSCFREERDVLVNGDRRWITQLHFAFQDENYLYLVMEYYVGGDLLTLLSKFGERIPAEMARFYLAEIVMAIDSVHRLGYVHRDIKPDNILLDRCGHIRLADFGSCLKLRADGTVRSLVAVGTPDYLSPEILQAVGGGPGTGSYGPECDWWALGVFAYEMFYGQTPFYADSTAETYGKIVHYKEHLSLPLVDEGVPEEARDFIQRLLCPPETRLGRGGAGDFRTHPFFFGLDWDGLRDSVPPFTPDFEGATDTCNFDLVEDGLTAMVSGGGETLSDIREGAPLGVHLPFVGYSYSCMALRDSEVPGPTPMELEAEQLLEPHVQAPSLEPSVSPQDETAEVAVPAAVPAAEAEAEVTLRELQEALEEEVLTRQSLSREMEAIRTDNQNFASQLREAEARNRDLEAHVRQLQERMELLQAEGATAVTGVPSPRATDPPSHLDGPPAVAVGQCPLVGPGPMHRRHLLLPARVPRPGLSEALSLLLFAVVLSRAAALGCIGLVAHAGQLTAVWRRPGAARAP
Excerpt: as §1

[12] = target: 320 wild-type protein kinases (Homo sapiens, UniProt Q13153); details: singlicate
Excerpt: as §1

[13] = target: 320 wild-type protein kinases (Homo sapiens, UniProt Q16644); details: singlicate
Chain of 320 wild-type protein kinases (Homo sapiens, UniProt Q16644) (Q16644 whole entry): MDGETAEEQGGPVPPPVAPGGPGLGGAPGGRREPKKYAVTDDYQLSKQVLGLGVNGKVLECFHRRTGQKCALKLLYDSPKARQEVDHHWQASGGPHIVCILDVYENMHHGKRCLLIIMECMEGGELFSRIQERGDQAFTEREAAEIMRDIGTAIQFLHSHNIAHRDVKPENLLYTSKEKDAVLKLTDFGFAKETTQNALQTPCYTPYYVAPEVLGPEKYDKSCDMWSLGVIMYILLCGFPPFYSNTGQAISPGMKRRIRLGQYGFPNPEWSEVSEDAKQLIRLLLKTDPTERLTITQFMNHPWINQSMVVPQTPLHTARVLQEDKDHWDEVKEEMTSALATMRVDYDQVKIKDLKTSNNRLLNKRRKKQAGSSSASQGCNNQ
Excerpt: as §1

[14] = target: 320 wild-type protein kinases (Homo sapiens, UniProt Q16816); details: singlicate
Chain of 320 wild-type protein kinases (Homo sapiens, UniProt Q16816) (Q16816 whole entry): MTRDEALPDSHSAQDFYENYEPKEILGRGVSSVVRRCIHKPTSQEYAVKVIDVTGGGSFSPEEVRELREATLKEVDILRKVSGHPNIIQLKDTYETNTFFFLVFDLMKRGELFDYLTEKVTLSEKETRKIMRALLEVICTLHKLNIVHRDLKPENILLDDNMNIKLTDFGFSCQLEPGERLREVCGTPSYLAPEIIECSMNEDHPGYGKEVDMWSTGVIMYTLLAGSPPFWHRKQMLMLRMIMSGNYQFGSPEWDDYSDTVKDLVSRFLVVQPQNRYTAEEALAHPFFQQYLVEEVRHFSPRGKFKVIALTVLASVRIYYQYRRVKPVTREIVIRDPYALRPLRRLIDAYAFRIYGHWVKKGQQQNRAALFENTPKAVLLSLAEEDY
Excerpt: as §1

Chain of 320 wild-type protein kinases (Homo sapiens, UniProt O75582) (O75582 whole entry): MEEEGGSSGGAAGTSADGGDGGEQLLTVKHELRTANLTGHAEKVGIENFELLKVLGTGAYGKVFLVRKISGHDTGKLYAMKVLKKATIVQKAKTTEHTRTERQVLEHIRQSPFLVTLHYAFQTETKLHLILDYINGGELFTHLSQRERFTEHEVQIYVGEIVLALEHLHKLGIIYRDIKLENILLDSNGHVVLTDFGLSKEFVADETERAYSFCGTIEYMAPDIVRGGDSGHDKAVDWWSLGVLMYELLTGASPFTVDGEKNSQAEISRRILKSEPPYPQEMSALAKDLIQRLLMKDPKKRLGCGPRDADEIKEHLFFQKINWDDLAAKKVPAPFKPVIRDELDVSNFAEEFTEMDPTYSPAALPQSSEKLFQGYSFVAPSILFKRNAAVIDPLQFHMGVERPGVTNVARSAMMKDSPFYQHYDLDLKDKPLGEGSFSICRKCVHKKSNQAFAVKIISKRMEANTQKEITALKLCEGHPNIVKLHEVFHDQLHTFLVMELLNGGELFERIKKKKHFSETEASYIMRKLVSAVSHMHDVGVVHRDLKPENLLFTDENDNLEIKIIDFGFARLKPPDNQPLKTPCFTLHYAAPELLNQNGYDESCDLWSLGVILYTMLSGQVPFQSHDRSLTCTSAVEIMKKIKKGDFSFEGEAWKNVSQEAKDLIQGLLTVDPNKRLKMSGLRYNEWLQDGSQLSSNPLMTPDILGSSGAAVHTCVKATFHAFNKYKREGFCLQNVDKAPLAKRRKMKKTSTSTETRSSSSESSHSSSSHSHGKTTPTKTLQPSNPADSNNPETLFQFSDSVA

Compound	Residual activity, RPS6KA5 ([1]; assay conc. 1.0E-06 M)	Residual activity, RPS6KA5 ([1]; assay conc. 1.0E-07 M)	Residual activity ([2]; PAK3, 1.0E-06 M)	Residual activity ([2]; PAK3, 1.0E-07 M)	Residual activity ([3]; 1.0E-06 M)	Residual activity ([3]; 1.0E-07 M)	Residual activity ([4]; JNK1, 1.0E-06 M)	Residual activity ([4]; JNK1, 1.0E-07 M)	Residual activity ([5]; JNK2, 1.0E-06 M)	Residual activity ([5]; JNK2, 1.0E-07 M)	Residual activity ([6]; NEK2, 1.0E-06 M)	Residual activity ([6]; NEK2, 1.0E-07 M)	Residual activity, SRPK2 ([7]; assay conc. 1.0E-06 M)	Residual activity, SRPK2 ([7]; assay conc. 1.0E-07 M)	Residual activity ([8]; 1.0E-06 M)	Residual activity ([8]; 1.0E-07 M)	Residual activity ([9]; FAK aa2-1052, 1.0E-06 M)	Residual activity ([9]; FAK aa2-1052, 1.0E-07 M)	Residual activity ([10]; 1.0E-06 M)	Residual activity ([10]; 1.0E-07 M)	also measured
C#Cc1cc(Nc2ncnc3cc(I)ccc23)ccc1Cl [Compound 41]	99 % of control	112 % of control	75 % of control	96 % of control	90 % of control	110 % of control	91 % of control	90 % of control	116 % of control	110 % of control	82 % of control	96 % of control	115 % of control	131 % of control	102 % of control	101 % of control	106 % of control	138 % of control	107 % of control	99 % of control	Residual activity ([11]; 1.0E-06 M): 106 % of control; Residual activity ([11]; 1.0E-07 M): 121 % of control; Residual activity ([12]; PAK1, 1.0E-06 M): 92 % of control; Residual activity ([12]; PAK1, 1.0E-07 M): 87 % of control; Residual activity ([13]; MAPKAPK3, 1.0E-06 M): 86 % of control; Residual activity ([13]; MAPKAPK3, 1.0E-07 M): 99 % of control; Residual activity ([14]; PHKG1, 1.0E-06 M): 94 % of control; Residual activity ([14]; PHKG1, 1.0E-07 M): 97 % of control
C#Cc1cc(Nc2ncnc3cc(OC)c(OC)cc23)ccc1Cl [Compound 45]	107 % of control	104 % of control	92 % of control	98 % of control	72 % of control	102 % of control	94 % of control	113 % of control	120 % of control	115 % of control	86 % of control	92 % of control	151 % of control	115 % of control	101 % of control	109 % of control	95 % of control	109 % of control	99 % of control	88 % of control	Residual activity ([11]; 1.0E-06 M): 104 % of control; Residual activity ([11]; 1.0E-07 M): 103 % of control; Residual activity ([12]; PAK1, 1.0E-06 M): 95 % of control; Residual activity ([12]; PAK1, 1.0E-07 M): 91 % of control; Residual activity ([13]; MAPKAPK3, 1.0E-06 M): 87 % of control; Residual activity ([14]; PHKG1, 1.0E-06 M): 85 % of control; Residual activity ([14]; PHKG1, 1.0E-07 M): 108 % of control
